The kinase profiling compilation of Christmann-Franck et al. (2016)

What was measured:
Assay in all cases: KINOMEscan competition binding
Details in all cases: compound 10.0 µM
PRKX (human) = PRKX (human) (UniProt P51817)
EPHA7 (human) = EPHA7 (human) (UniProt Q15375)
SNRK (human) = SNRK (human) (UniProt Q9NRH2)
NEK6 (human) = NEK6 (human) (UniProt Q9HC98)
CAMK2G (human) = CAMK2G (human) (UniProt Q13555)
MARK1 (human) = MARK1 (human) (UniProt Q9P0L2)
GRK4 (human) = GRK4 (human) (UniProt P32298)
HCK (human) = HCK (human) (UniProt P08631)
CDK15 (human) = CDK15 (human) (UniProt Q96Q40)
PKN1 (human) = PKN1 (human) (UniProt Q16512)
CLK2 (human) = CLK2 (human) (UniProt P49760)
AKT3 (human) = AKT3 (human) (UniProt Q9Y243)
ULK2 (human) = ULK2 (human) (UniProt Q8IYT8)
SBK1 (human) = SBK1 (human) (UniProt Q52WX2)
[1] = system: FLT3 (human), P36888 [N841I]
EIF2AK2 (human) = EIF2AK2 (human) (UniProt P19525)
NEK7 (human) = NEK7 (human) (UniProt Q8TDX7)
[2] = system: FLT3 (human), P36888 [D835H]
HIPK4 (human) = HIPK4 (human) (UniProt Q8NE63)
EPHA4 (human) = EPHA4 (human) (UniProt P54764)
GSK3A (human) = GSK3A (human) (UniProt P49840)
PDPK1 (human) = PDPK1 (human) (UniProt O15530)
BRSK2 (human) = BRSK2 (human) (UniProt Q8IWQ3)
PRKCH (human) = PRKCH (human) (UniProt P24723)
STK32C (human) = STK32C (human) (UniProt Q86UX6)
CAMK1G (human) = CAMK1G (human) (UniProt Q96NX5)
DCLK2 (human) = DCLK2 (human) (UniProt Q8N568)
RPS6KA5 KD2 (human) = RPS6KA5 KD2 (human) (UniProt O75582)
YES1 (human) = YES1 (human) (UniProt P07947)
TRPM6 (human) = TRPM6 (human) (UniProt Q9BX84)
MAPK4 (human) = MAPK4 (human) (UniProt P31152)
CAMK2A (human) = CAMK2A (human) (UniProt Q9UQM7)
BRAF (human) = BRAF (human) (UniProt P15056)
[3] = system: PIK3CA (human), P42336 [E545A]
CDK7 (human) = CDK7 (human) (UniProt P50613)
GRK1 (human) = GRK1 (human) (UniProt Q15835)
MAP3K7 (human) = MAP3K7 (human) (UniProt O43318)
EPHB3 (human) = EPHB3 (human) (UniProt P54753)
CAMKK2 (human) = CAMKK2 (human) (UniProt Q96RR4)
TBK1 (human) = TBK1 (human) (UniProt Q9UHD2)
[4] = system: KIT (human), P10721 [V559D/T670I]

Chain of PRKX (human) (P51817 whole entry, looked up): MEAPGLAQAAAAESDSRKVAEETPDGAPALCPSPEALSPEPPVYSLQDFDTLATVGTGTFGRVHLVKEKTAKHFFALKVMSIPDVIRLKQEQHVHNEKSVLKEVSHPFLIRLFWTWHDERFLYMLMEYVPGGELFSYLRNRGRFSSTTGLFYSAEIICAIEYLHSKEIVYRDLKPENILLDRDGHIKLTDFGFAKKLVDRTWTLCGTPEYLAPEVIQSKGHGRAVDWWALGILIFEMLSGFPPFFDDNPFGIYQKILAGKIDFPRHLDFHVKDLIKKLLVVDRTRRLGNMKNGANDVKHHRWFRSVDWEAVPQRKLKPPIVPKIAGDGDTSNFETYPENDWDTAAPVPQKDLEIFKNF
Chain of TRPM6 (human) (Q9BX84 whole entry, looked up): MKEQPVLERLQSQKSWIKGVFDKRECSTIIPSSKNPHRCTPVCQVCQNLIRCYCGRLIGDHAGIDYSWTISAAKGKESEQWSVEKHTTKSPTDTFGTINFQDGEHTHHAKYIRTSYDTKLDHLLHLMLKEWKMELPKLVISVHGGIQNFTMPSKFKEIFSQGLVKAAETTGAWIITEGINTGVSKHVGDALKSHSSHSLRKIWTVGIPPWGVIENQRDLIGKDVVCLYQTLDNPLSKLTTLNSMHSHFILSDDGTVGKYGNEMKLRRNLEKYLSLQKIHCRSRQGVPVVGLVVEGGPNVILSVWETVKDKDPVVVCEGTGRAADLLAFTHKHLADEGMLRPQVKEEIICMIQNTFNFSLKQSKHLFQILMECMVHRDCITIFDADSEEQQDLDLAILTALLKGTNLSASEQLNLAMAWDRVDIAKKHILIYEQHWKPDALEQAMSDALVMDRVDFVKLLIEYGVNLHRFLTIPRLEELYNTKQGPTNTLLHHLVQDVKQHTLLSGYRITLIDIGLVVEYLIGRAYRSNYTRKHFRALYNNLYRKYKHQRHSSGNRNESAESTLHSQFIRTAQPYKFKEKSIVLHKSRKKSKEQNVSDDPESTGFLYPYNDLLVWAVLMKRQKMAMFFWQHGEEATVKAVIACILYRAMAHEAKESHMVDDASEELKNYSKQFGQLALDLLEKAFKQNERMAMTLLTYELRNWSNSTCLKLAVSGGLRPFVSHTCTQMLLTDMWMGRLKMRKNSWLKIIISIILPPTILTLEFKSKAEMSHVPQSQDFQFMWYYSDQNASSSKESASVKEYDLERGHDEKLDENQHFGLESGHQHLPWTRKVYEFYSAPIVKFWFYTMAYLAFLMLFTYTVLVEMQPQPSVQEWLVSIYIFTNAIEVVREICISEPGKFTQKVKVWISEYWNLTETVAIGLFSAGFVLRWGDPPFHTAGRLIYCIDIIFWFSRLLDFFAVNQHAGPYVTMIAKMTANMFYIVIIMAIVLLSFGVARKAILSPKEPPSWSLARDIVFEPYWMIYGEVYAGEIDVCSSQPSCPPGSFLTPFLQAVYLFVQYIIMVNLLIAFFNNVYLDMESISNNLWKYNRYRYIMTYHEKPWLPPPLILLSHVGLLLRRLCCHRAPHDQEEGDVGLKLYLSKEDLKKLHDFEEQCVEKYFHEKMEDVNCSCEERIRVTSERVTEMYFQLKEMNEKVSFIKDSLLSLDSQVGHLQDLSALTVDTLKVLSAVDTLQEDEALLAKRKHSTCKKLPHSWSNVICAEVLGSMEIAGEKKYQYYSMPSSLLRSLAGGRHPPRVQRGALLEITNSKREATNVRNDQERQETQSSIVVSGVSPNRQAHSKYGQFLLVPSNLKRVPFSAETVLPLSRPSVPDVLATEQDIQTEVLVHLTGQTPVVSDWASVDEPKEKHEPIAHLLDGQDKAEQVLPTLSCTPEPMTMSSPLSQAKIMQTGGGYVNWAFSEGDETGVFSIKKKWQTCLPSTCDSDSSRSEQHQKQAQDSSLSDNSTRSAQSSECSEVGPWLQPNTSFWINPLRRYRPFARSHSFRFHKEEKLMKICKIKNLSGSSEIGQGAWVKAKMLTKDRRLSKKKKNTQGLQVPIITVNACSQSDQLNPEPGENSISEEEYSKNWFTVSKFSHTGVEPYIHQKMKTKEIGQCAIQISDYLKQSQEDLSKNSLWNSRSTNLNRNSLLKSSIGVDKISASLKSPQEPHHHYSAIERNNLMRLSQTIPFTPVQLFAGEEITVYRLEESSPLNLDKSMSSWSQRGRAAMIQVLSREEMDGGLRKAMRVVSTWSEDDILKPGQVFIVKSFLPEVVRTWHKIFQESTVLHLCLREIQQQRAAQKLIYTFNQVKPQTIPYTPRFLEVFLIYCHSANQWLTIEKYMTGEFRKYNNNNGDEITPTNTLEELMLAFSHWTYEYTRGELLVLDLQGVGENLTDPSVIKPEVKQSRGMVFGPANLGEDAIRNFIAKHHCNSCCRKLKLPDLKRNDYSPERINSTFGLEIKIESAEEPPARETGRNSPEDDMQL
Chain of CAMK1G (human) (Q96NX5 whole entry, looked up): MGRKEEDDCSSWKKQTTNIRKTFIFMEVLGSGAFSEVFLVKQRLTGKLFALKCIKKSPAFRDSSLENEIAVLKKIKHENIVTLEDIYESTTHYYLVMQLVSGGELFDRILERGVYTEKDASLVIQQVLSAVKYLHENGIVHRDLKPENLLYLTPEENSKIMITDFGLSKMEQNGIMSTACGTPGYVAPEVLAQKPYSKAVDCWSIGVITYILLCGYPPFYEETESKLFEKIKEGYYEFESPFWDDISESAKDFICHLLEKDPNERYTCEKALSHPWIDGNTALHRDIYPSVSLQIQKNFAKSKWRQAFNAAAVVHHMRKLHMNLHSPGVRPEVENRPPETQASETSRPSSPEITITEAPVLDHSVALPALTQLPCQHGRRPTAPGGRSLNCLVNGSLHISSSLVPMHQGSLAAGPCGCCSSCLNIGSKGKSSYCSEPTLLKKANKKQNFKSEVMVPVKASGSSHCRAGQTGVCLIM
Chain of AKT3 (human) (Q9Y243 whole entry, looked up): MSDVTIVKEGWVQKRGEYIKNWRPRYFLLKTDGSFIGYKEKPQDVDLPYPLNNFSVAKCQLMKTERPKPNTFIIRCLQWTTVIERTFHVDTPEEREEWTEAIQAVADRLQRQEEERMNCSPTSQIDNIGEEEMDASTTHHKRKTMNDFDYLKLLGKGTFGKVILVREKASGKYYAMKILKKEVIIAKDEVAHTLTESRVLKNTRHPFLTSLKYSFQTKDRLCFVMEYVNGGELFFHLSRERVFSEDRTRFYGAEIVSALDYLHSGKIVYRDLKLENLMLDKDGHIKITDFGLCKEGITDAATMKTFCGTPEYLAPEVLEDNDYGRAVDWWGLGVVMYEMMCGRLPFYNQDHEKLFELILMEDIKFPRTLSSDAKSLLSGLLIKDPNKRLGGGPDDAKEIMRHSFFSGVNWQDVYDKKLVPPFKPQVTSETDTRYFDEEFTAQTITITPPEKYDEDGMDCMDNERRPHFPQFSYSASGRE
Chain of SNRK (human) (Q9NRH2 whole entry, looked up): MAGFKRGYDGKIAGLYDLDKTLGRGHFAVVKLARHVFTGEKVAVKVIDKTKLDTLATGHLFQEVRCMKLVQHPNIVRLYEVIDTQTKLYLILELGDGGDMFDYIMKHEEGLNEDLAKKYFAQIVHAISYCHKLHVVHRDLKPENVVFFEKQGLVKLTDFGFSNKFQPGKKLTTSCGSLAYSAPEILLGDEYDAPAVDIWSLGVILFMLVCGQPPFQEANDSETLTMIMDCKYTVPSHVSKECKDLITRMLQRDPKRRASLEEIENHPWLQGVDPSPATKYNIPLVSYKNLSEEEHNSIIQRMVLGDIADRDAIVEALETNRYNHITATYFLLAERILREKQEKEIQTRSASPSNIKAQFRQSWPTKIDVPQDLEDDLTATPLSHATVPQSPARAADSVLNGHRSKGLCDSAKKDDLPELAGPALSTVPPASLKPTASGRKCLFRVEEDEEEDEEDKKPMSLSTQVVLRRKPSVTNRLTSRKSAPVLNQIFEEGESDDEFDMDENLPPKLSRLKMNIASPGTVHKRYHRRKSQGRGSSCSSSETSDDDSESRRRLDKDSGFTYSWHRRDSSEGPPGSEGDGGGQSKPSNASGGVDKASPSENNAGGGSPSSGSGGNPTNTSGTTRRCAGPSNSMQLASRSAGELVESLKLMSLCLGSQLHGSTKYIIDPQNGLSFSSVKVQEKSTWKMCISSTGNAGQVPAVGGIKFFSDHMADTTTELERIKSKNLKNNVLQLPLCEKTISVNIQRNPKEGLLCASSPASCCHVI
Chain of MAP3K7 (human) (O43318 whole entry, looked up): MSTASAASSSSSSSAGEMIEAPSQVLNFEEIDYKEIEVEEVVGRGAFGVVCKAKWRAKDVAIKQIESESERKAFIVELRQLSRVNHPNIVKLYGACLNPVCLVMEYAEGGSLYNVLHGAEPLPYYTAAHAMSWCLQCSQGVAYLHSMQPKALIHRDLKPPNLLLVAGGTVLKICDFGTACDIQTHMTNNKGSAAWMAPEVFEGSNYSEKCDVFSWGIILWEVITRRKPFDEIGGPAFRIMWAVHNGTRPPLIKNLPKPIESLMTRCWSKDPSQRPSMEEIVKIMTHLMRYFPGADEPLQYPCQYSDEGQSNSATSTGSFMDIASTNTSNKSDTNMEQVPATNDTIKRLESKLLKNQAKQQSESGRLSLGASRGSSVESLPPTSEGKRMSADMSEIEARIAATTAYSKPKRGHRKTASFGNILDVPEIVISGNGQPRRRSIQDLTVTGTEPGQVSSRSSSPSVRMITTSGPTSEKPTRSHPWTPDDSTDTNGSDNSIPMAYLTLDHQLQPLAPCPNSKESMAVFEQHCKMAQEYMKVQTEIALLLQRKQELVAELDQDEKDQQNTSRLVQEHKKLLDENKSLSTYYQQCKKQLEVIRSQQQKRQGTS
Chain of NEK7 (human) (Q8TDX7 whole entry, looked up): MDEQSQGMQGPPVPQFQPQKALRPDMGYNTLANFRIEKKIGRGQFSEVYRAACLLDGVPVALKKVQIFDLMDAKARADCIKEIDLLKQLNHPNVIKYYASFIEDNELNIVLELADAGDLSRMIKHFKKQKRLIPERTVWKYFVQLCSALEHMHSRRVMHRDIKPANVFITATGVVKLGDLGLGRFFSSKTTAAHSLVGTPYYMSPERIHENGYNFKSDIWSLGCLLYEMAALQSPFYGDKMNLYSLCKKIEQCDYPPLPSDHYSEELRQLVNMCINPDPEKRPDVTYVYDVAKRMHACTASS

In the case of `CCC(=O)N1CCN(c2ccc(-n3c(=O)ccc4cnc5ccc(-c6cnc7ccccc7c6)cc5c43)cc2C(F)(F)F)CC1`, the kinase still bound, per cent of control (PRKX (human)) is reported as 83%, the kinase still bound, per cent of control (EPHA7 (human)) is reported as 98% and the kinase still bound, per cent of control (SNRK (human)) is reported as 60%. For the same molecule, the kinase still bound, per cent of control (NEK6 (human)) was 99%, the kinase still bound, per cent of control (CAMK2G (human)) was 79% and the kinase still bound, per cent of control (MARK1 (human)) was 100%. It also gave a kinase still bound, per cent of control (GRK4 (human)) of 90%, a kinase still bound, per cent of control (HCK (human)) of 77% and a per cent of control (CDK15 (human)) of 88%. It also gave a kinase still bound, per cent of control (PKN1 (human)) of 92%, a kinase still bound, per cent of control (CLK2 (human)) of 65% and a kinase still bound, per cent of control (AKT3 (human)) of 77%. For the same molecule, the kinase still bound, per cent of control (ULK2 (human)) was 75%, the kinase still bound, per cent of control (SBK1 (human)) was 88% and the kinase still bound, per cent of control [1] was 8.8%. The kinase still bound, per cent of control (EIF2AK2 (human)) was 88%, the kinase still bound, per cent of control (NEK7 (human)) was 90% and the kinase still bound, per cent of control [2] was 18%. For the same molecule, the kinase still bound, per cent of control (HIPK4 (human)) was 4.6%, the kinase still bound, per cent of control (EPHA4 (human)) was 90% and the kinase still bound, per cent of control (GSK3A (human)) was 93%. The kinase still bound, per cent of control (PDPK1 (human)) was 100%, the kinase still bound, per cent of control (BRSK2 (human)) was 76% and the kinase still bound, per cent of control (PRKCH (human)) was 92%. It also gave a kinase still bound, per cent of control (STK32C (human)) of 100%, a kinase still bound, per cent of control (CAMK1G (human)) of 74% and a kinase still bound, per cent of control (DCLK2 (human)) of 100%. It also gave a kinase still bound, per cent of control (RPS6KA5 KD2 (human)) of 100%, a kinase still bound, per cent of control (YES1 (human)) of 74% and a kinase still bound, per cent of control (TRPM6 (human)) of 100%. For the same molecule, the kinase still bound, per cent of control (MAPK4 (human)) was 80%, the kinase still bound, per cent of control (CAMK2A (human)) was 93% and the kinase still bound, per cent of control (BRAF (human)) was 59%. The kinase still bound, per cent of control [3] was 1%, the per cent of control (CDK7 (human)) was 57% and the kinase still bound, per cent of control (GRK1 (human)) was 99%. The kinase still bound, per cent of control (MAP3K7 (human)) was 47%, the kinase still bound, per cent of control (EPHB3 (human)) was 85% and the kinase still bound, per cent of control (CAMKK2 (human)) was 85%. The kinase still bound, per cent of control (TBK1 (human)) was 93%.
`CC(C)n1nc(-c2cc3cc(O)ccc3[nH]2)c2c(N)ncnc21` gave a kinase still bound, per cent of control (PRKX (human)) of 100%, a kinase still bound, per cent of control (EPHA7 (human)) of 61% and a kinase still bound, per cent of control (SNRK (human)) of 100%. For the same molecule, the kinase still bound, per cent of control (NEK6 (human)) was 100%, the kinase still bound, per cent of control (CAMK2G (human)) was 56% and the kinase still bound, per cent of control (MARK1 (human)) was 81%. For the same molecule, the kinase still bound, per cent of control (GRK4 (human)) was 83%, the kinase still bound, per cent of control (HCK (human)) was 2.5% and the per cent of control (CDK15 (human)) was 96%. The kinase still bound, per cent of control (PKN1 (human)) was 85%, the kinase still bound, per cent of control (CLK2 (human)) was 9.7% and the kinase still bound, per cent of control (AKT3 (human)) was 29%. The kinase still bound, per cent of control (ULK2 (human)) was 39%, the kinase still bound, per cent of control (SBK1 (human)) was 92% and the kinase still bound, per cent of control [1] was 5%. It also gave a kinase still bound, per cent of control (EIF2AK2 (human)) of 48%, a kinase still bound, per cent of control (NEK7 (human)) of 100% and a kinase still bound, per cent of control [2] of 7.4%. It also gave a kinase still bound, per cent of control (HIPK4 (human)) of 27%, a kinase still bound, per cent of control (EPHA4 (human)) of 36% and a kinase still bound, per cent of control (GSK3A (human)) of 74%. For the same molecule, the kinase still bound, per cent of control (PDPK1 (human)) was 96%, the kinase still bound, per cent of control (BRSK2 (human)) was 0.95% and the kinase still bound, per cent of control (PRKCH (human)) was 10%. For the same molecule, the kinase still bound, per cent of control (STK32C (human)) was 69%, the kinase still bound, per cent of control (CAMK1G (human)) was 77% and the kinase still bound, per cent of control (DCLK2 (human)) was 100%. The kinase still bound, per cent of control (RPS6KA5 KD2 (human)) was 22%, the kinase still bound, per cent of control (YES1 (human)) was 3.2% and the kinase still bound, per cent of control (TRPM6 (human)) was 70%. For the same molecule, the kinase still bound, per cent of control (MAPK4 (human)) was 75%, the kinase still bound, per cent of control (CAMK2A (human)) was 53% and the kinase still bound, per cent of control (BRAF (human)) was 5.8%. It also gave a per cent of control (CDK7 (human)) of 30%, a kinase still bound, per cent of control (GRK1 (human)) of 16% and a kinase still bound, per cent of control (MAP3K7 (human)) of 22%. The kinase still bound, per cent of control [4] was 30%, the kinase still bound, per cent of control (EPHB3 (human)) was 81% and the kinase still bound, per cent of control (CAMKK2 (human)) was 30%. For the same molecule, the kinase still bound, per cent of control (TBK1 (human)) was 84%.
